According to ChEMBL document CHEMBL1151242, “A new antifungal metabolite from Penicillium expansum” (2004):

test system: Lasiodiplodia theobromae; assay: Antifungal activity against Lasiodiplodia theobromae OCS71 assessed as inhibition of mycelial growth at 100 ug/ml after 4 days by fungicide disk assay; assay type: functional; settings: 96 h

Going from `COC1=CC(=O)C(C)=C2C[C@H](C)OC=C12` to `COc1cc(O)c(C)c2c1CO[C@@H](C)C2`, the inhibition at 100 µg/mL falls from 69% to less than 10%.

Compared with `CCOC1O[C@@H](C)Cc2c(C)c(O)cc(OC)c21` (some centres undefined), `COc1cc(O)c(C)c2c1[C@@H](OC)O[C@@H](C)C2` is higher in inhibition at 100 µg/mL: 74% for the first, 76% for the second.
